Experimental data published in patent US4039736A (Bristol-Myers Company, priority 1976, dated 1977).
Converted amounts (≈) assume the structure as drawn.

How the values were obtained:
[1] = tested on: Streptococcus pneumoniae A-9585; experiment: MIC, standard tube dilution procedure; assay type: cell-based; conditions: Streptococcus pneumoniae, A9585
[2] = tested on: Klebsiella pneumoniae A-9977; experiment: MIC, standard tube dilution procedure; assay type: cell-based; conditions: Klebsiella pneumoniae, A9977
Proteus mirabilis A-9900 = experiment: MIC, standard tube dilution procedure; assay type: cell-based; conditions: Proteus mirabilis, A9900
P-388 leukemia = experiment: transplanted mouse leukemia P-388 (ascitic); conditions: Example 7 column fraction
Method: (§1) The compounds of the present invention were also tested against various transplantable rodent tumer systems.
(§2) Single injection Day 1 intraperitoneally.?
(§3) T/C percent MST=median survival time in days: Treated/Control × 100

[3] = tested on: Candida tropicalis A-15051; experiment: MIC, standard tube dilution procedure; assay type: cell-based; conditions: Candida tropicalis, A15051
Candida krusei A-15052 = experiment: MIC, standard tube dilution procedure; assay type: cell-based; conditions: Pichia kudriavzevii, A15052
Candida albicans A-9540 = experiment: MIC, standard tube dilution procedure; assay type: cell-based; conditions: Candida albicans, A9540
L-1210 leukemia [4] = experiment: L-1210 mouse leukemia, purified compounds, BDF1 female mice
Method: Inoculum: 10^6 ascitic cells, i.p. into BDF1 female mice
Treatment: i.p. in 0.5 ml. volume
Evaluation: MST = median survival time in days; %T/C = MST treated/MST
(prolongation of host survival)

L-1210 leukemia [5] = experiment: transplanted mouse leukemia L-1210 (ascitic); conditions: Example 7 column fraction
Method: as §1, §2, §3

[6] = tested on: Cryptococcus neoformans A-1503; experiment: MIC, standard tube dilution procedure; assay type: cell-based; conditions: Cryptococcus neoformans, A1503
Escherichia coli A-21780 = experiment: MIC, standard tube dilution procedure; assay type: cell-based; conditions: Escherichia coli, A21780
[7] = tested on: Staphylococcus aureus A-9497; experiment: MIC, standard tube dilution procedure; assay type: cell-based; conditions: Staphylococcus aureus, A9497
[8] = tested on: Streptococcus pyogenes A-9604; experiment: MIC, standard tube dilution procedure; assay type: cell-based; conditions: Streptococcus pyogenes, A9604
[9] = tested on: Trichophyton mentagrophytes A-9870; experiment: MIC, standard tube dilution procedure; assay type: cell-based; conditions: Trichophyton mentagrophytes, A9870
[10] = tested on: Staphylococcus aureus A-9537; experiment: MIC, standard tube dilution procedure; assay type: cell-based; conditions: Staphylococcus aureus, A9537
[11] = acute intraperitoneal LD50 in mice; conditions: mouse, in vivo, ip
Escherichia coli A-15119 = experiment: MIC, standard tube dilution procedure; assay type: cell-based; conditions: Escherichia coli, A15119
[12] = 3.2 mg/kg/day i.p., Day 1, 1 injection
[13] = 3.2 mg/kg/day i.p., Day 1→5, 5 injections
[14] = 6.4 mg/kg/day i.p., Day 1, 1 injection
[15] = 6.4 mg/kg/day i.p., Day 1→5, 4 injections
[16] = 12.8 mg/kg/day i.p., Day 1, 1 injection
[17] = .2 mg/kg/day i.p., Day 1→5, 5 injections
[18] = .4 mg/kg/day i.p., Day 1, 1 injection
[19] = .4 mg/kg/day i.p., Day 1→5, 5 injections
[20] = .8 mg/kg/day i.p., Day 1, 1 injection
[21] = .8 mg/kg/day i.p., Day 1→5, 5 injections

CC[C@@]1(O)C[C@H](O[C@H]2C[C@H](N(C)C)[C@H](O[C@H]3C[C@H](O)[C@H](O[C@H]4C[C@H](O)[C@H](O)[C@H](C)O4)[C@H](C)O3)[C@H](C)O2)c2c(cc3c(c2O)C(=O)c2c(O)ccc(O)c2C3=O)[C@H]1C(=O)OC [marcellomycin]
MIC [1]: 0.03 µg/mL (≈ 0.0355 µM)
MIC [2]: 125 µg/mL (≈ 148 µM)
MIC (Proteus mirabilis A-9900): > 125 µg/mL
activity on P-388 mouse leukemia (P-388 leukemia): high activity
MIC [3]: 125 µg/mL (≈ 148 µM)
MIC (Candida krusei A-15052): 125 µg/mL (≈ 148 µM)
MIC (Candida albicans A-9540): 125 µg/mL (≈ 148 µM)
Average Weight Change (L-1210 leukemia [4]; [12]): -0.7 g
MST %T/C (L-1210 leukemia [4]; [12]): 157%
MST Days (L-1210 leukemia [4]; [12]): 11.0 days
Survivors Day 5 (L-1210 leukemia [4]; [12]): 6/6
Average Weight Change (L-1210 leukemia [4]; [13]): -1.2 g
MST %T/C (L-1210 leukemia [4]; [13]): 86%
MST Days (L-1210 leukemia [4]; [13]): 6.0 days
Survivors Day 5 (L-1210 leukemia [4]; [13]): 3/6
Average Weight Change (L-1210 leukemia [4]; [14]): -0.7 g
MST %T/C (L-1210 leukemia [4]; [14]): 157%
MST Days (L-1210 leukemia [4]; [14]): 11.0 days
Survivors Day 5 (L-1210 leukemia [4]; [14]): 6/6
Average Weight Change in g. (L-1210 leukemia [4]; [15]): TOXIC
MST %T/C (L-1210 leukemia [4]; [15]): TOXIC
MST Days (L-1210 leukemia [4]; [15]): TOXIC
Survivors Day 5 (L-1210 leukemia [4]; [15]): 0/6
Average Weight Change (L-1210 leukemia [4]; [16]): -0.7 g
MST %T/C (L-1210 leukemia [4]; [16]): 143%
MST Days (L-1210 leukemia [4]; [16]): 10.0 days
Survivors Day 5 (L-1210 leukemia [4]; [16]): 3/6
Average Weight Change (L-1210 leukemia [4]; [17]): -1.1 g
MST %T/C (L-1210 leukemia [4]; [17]): 129%
MST Days (L-1210 leukemia [4]; [17]): 9.0 days
Survivors Day 5 (L-1210 leukemia [4]; [17]): 6/6
Average Weight Change (L-1210 leukemia [4]; [18]): -0.8 g
MST %T/C (L-1210 leukemia [4]; [18]): 129%
MST Days (L-1210 leukemia [4]; [18]): 9.0 days
Survivors Day 5 (L-1210 leukemia [4]; [18]): 6/6
Average Weight Change (L-1210 leukemia [4]; [19]): 0 g
MST %T/C (L-1210 leukemia [4]; [19]): 129%
MST Days (L-1210 leukemia [4]; [19]): 9.0 days
Survivors Day 5 (L-1210 leukemia [4]; [19]): 6/6
Average Weight Change (L-1210 leukemia [4]; [20]): 0 g
MST %T/C (L-1210 leukemia [4]; [20]): 150%
MST Days (L-1210 leukemia [4]; [20]): 10.5 days
Survivors Day 5 (L-1210 leukemia [4]; [20]): 6/6
Average Weight Change (L-1210 leukemia [4]; [21]): -0.2 g
MST %T/C (L-1210 leukemia [4]; [21]): 143%
MST Days (L-1210 leukemia [4]; [21]): 10.0 days
Survivors Day 5 (L-1210 leukemia [4]; [21]): 6/6
potency relative to musettamycin in inhibitory effects on L-1210 (L-1210 leukemia [4]; purified, L-1210 mouse leukemia): about four times
activity on L-1210 mouse leukemia (L-1210 leukemia [5]): high activity
MIC [6]: 125 µg/mL (≈ 148 µM)
MIC (Escherichia coli A-21780): 32 µg/mL (≈ 37.8 µM)
MIC [7]: 1 µg/mL (≈ 1.18 µM)
MIC [8]: 0.03 µg/mL (≈ 0.0355 µM)
MIC [9]: > 125 µg/mL
MIC [10]: 1 µg/mL (≈ 1.18 µM)
LD50 [11]: 6.35 to 10.6 mg/kg
MIC (Escherichia coli A-15119): 125 µg/mL (≈ 148 µM)
